This note sets out measurements from patent US20250188092A1, “RIFAMYCIN ANALOGS” (THE REGENTS OF THE UNIVERSITY OF MICHIGAN, priority 2021, published 2025).

One data set relates to VERO cells (ATCC CRL-81). The data set is described as follows: Vero cell toxicity. The format is cell-based. To be noted: Chlorocebus sabaeus, Vero; 72 hours exposure. On the procedure: Cytotoxicity for a mammalian cell line was determined by exposing VERO cells (ATCC CRL-81) to serial dilutions of test compounds for 72 hours, followed by addition of resazurin and measurement of fluorescence after 4 hours incubation (Choules, et al., Antimnicrob. Agents Chemother. 2019, 63, e02204-02218).

For the next data set, the system named is MTB H37Rv ATCC 27294. The data set is described as follows: MIC, microplate Alamar Blue assay (MABA). The format is cell-based, Mycobacterium tuberculosis. The conditions noted are these: for MIC / MIC90: Mycobacterium tuberculosis, MTB H37Rv ATCC 27294, microplate Alamar Blue assay, lowest concentration giving ≥90% reduction in fluorescence; for MIC: read-out: MIC90 MABA. On the technique in general: The colour change of resazurin is a common sign of viable cells or microbes.

The next data set concerns M. tuberculosis H37Rv. The data set is described as follows: Minimum bactericidal concentration (MBC, CFU Assay). The format is cell-based, Mycobacterium tuberculosis. To be noted: for MBC99 Day 7 (CFU Assay) MBC99 Rel to RMP: CFU Assay MBC99 relative to rifampin (RMP = 1); for MBC: Mycobacterium tuberculosis, 168 h, Day 7, M. tuberculosis H37Rv, ≥99% reduction in colony forming units, read-out: MBC99 Day 7 (CFU Assay) MBC99.

The test system of a further data set is DPX2 cells. To be noted: for DPX2 Viability @ 6.25 μM: 24 h; for DPX2 Viability @ 25 μM: human.
For the next data set, the target named is T1, E. coli WT RNAP (Escherichia coli, UniProt P0A8V2).
T1 construct: made in house
Kind of data set: biochemical.

The target of data set [1] is T2, E. coli D516V (RIF^R) RNAP (Escherichia coli, UniProt P0A8V2, D516V).
T2 construct: made in house
The data set is described as follows: biochemical.

The target in data set [2] is T3, E. coli S531L (RIF^R) RNAP (Escherichia coli, UniProt P0A8V2, S531L).
T3 construct: made in house
The data set is described as follows: biochemical.

Usually IC50 stands for the point on the concentration scale where inhibition reaches its midpoint. In turn, `CO[C@H]1/C=C/O[C@@]2(C)Oc3c(C)c(O)c4c(=O)c(c5oc6cccc(OCc7cccc(CN8CCN(C(=O)Cn9ccnc9)CC8)c7)c6nc-5c4c3C2=O)NC(=O)/C(C)=C\C=C\[C@H](C)[C@H](O)[C@@H](C)[C@@H](O)[C@@H](C)[C@H](OC(C)=O)[C@@H]1C` [Compound 11e, (7S,9E,11S,12R,13S,14R,15R,16R,17S,18S,19E,21Z)-2,15,17-Trihydroxy-32-{[3-({4-[2-(1H-imidazol-1-yl)acetyl]piperazin-1-yl}methyl)phenyl]methoxy}-11-methoxy-3,7,12,14,16,18,22-heptamethyl-6,23,37-trioxo-8,27,38-trioxa-24,34-diazahexacyclo[23.11.1.1^4,7.0^5,36.0^26,35.0^28,33]octatriaconta-1(36)2,4,9,19,21,25,28,30,32,34-undecaen-13-yl acetate] returned an IC50 in the data set on VERO cells (ATCC CRL-81) above 8 µM. In the data set with MTB H37Rv ATCC 27294, the “MIC90 MABA Rel to RMP” value stood at 0.93 and the MIC was determined as 0.048 µM. In the data set with M. tuberculosis H37Rv, the “MBC99 Day 7 (CFU Assay) MBC99 Rel to RMP” value was 0.15 and the MBC came out at 0.02 µM. Besides, in the data set on DPX2 cells, the “DPX2 Viability @ 6.25 μM” value is on record as 105% and the “DPX2 Viability @ 25 μM” value was found to be 96%.

`CO[C@H]1/C=C/O[C@@]2(C)Oc3c(C)c(O)c4c(=O)c(c5oc6cc(N7CCN(CC(C)C)CC7)cc(OCc7ccc(CN8CCNCC8)cc7)c6nc-5c4c3C2=O)NC(=O)/C(C)=C\C=C\[C@H](C)[C@H](O)[C@@H](C)[C@@H](O)[C@@H](C)[C@H](OC(C)=O)[C@@H]1C` [Compound 17b, (7S,9E,11S,12R,13S,14R,15R,16R,17S,18S,19E,21Z)-2,15,17-Trihydroxy-11-methoxy-3,7,12,14,16,18,22-heptamethyl-30-[4-(2-methylpropyl)piperazin-1-yl]-6,23,37-trioxo-32-({4-[(piperazin-1-yl)methyl]phenyl}methoxy)-8,27,38-trioxa-24,34-diazahexacyclo[23.11.1.1^4,7.0^5,36.0^26,35.0^28,33]octatriaconta-1(36)2,4,9,19,21,25,28,30,32,34-undecaen-13-yl acetate] yielded a half-maximal inhibitory concentration (IC50) in the data set on VERO cells (ATCC CRL-81) of 7.9 µM. In the data set with MTB H37Rv ATCC 27294, the “MIC90 MABA Rel to RMP” value came out at 0.24 and the MIC was below 0.016 µM. In addition, in the data set with M. tuberculosis H37Rv, the “MBC better than that of rifampin” value is on record as around 5 fold, the “MBC99 Day 7 (CFU Assay) MBC99 Rel to RMP” value is reported as 0.15 and the MBC is 0.02 µM. Moreover, in the data set with DPX2 cells, the “DPX2 Viability @ 6.25 μM” value is 109% and the “DPX2 Viability @ 25 μM” value worked out at 45%.

The MIC90 is the lowest concentration that inhibits either 90% of growth or 90% of the strains tested, depending on the study. Higher therefore signals weaker potency. In the data set on VERO cells (ATCC CRL-81), `CO[C@H]1/C=C/O[C@@]2(C)Oc3c(C)c(O)c4c(=O)c(c5oc6cc(N7CCN(C(=O)c8cccc(-n9ccnc9)c8)CC7)cc(C)c6nc-5c4c3C2=O)NC(=O)/C(C)=C\C=C\[C@H](C)[C@H](O)[C@@H](C)[C@@H](O)[C@@H](C)[C@H](OC(C)=O)[C@@H]1C` [Compound 29a, (7S,9E,11S,12R,13S,14R,15R,16R,17S,18S,19E,21Z)-2,15,17-Trihydroxy-30-{4-[3-(1H-imidazol-1-yl)benzoyl]piperazin-1-yl}-11-methoxy-3,7,12,14,16,18,22,32-octamethyl-6,23,37-trioxo-8,27,38-trioxa-24,34-diazahexacyclo[23.11.1.1^4,7.0^5,36.0^26,35.0^28,33]octatriaconta-1(36)2,4,9,19,21,25,28,30,32,34-undecaen-13-yl acetate] gave an IC50 above 10 µM. Moreover, in the data set with MTB H37Rv ATCC 27294, the “MIC90 MABA Rel to RMP” value was 1.33 and the MIC90 was 0.036 µM. For the same compound, in the data set on M. tuberculosis H37Rv, the “MBC99 Day 7 (CFU Assay) MBC99 Rel to RMP” value is 0.15 and the MBC was 0.02 µM. For the same compound, the “DPX2 Viability @ 25 μM” value in the data set on DPX2 cells came out at 149%.

On to `CO[C@H]1/C=C/O[C@@]2(C)Oc3c(C)c(O)c4c(=O)c(c5oc6cc(C)cc(N7CCN(C(=O)c8ccc9occc9c8)CC7)c6nc-5c4c3C2=O)NC(=O)/C(C)=C\C=C\[C@H](C)[C@H](O)[C@@H](C)[C@@H](O)[C@@H](C)[C@H](OC(C)=O)[C@@H]1C` [Compound 30h, (7S,9E,11S,12R,13S,14R,15R,16R,17S,18S,19E,21Z)-32-[4-(1-Benzofuran-5-carbonyl)piperazin-1-yl]-2,15,17-trihydroxy-11-methoxy-3,7,12,14,16,18,22,30-octamethyl-6,23,37-trioxo-8,27,38-trioxa-24,34-diazahexacyclo[23.11.1.1^4,7.0^5,36.0^26,35.0^28,33]octatriaconta-1(36)2,4,9,19,21,25,28,30,32,34-undecaen-13-yl acetate], for which the IC50 with VERO cells (ATCC CRL-81) is above 10 µM. For the same compound, in the data set with MTB H37Rv ATCC 27294, the “MIC90 MABA Rel to RMP” value amounted to 0.70 and the MIC90 was 0.019 µM. Besides, in the data set with M. tuberculosis H37Rv, the “MBC99 Day 7 (CFU Assay) MBC99 Rel to RMP” value is below 0.08 and the MBC is below 0.02 µM. Further, in the data set on DPX2 cells, the “DPX2 Viability @ 6.25 μM” value worked out at 100% and the “DPX2 Viability @ 25 μM” value is recorded as 57%.

In the case of `CO[C@H]1/C=C/O[C@@]2(C)Oc3c(C)c(O)c4c(=O)c(c5oc6cccc(OCCCCN7CCNCC7)c6nc-5c4c3C2=O)NC(=O)/C(C)=C\C=C\[C@H](C)[C@H](O)[C@@H](C)[C@@H](O)[C@@H](C)[C@H](OC(C)=O)[C@@H]1C` [Compound 5d, (7S,9E,11S,12R,13S,14R,15R,16R,17S,18S,19E,21Z)-2,15,17-Trihydroxy-11-methoxy-3,7,12,14,16,18,22-heptamethyl-6,23,37-trioxo-32-[4-(piperazin-1-yl)butoxy]-8,27,38-trioxa-24,34-diazahexacyclo[23.11.1.1^4,7.0^5,36.0^26,35.0^28,33]octatriaconta-1(36)2,4,9,19,21,25,28,30,32,34-undecaen-13-yl acetate], the IC50 was 0.006 µM against E. coli WT RNAP, 29 µM in data set [1], 440 µM in data set [2] and above 8 µM with VERO cells (ATCC CRL-81). For the same compound, in the data set on DPX2 cells, the “DPX2 Viability @ 6.25 μM” value is 102%. In addition, the “DPX2 Viability @ 25 μM” value in the data set with DPX2 cells was found to be 59%.

As for `CO[C@H]1/C=C/O[C@@]2(C)Oc3c(C)c(O)c4c(=O)c(c5oc6cc(C)cc(N7CCN(C(=O)c8cccc(-c9ccccn9)c8)CC7)c6nc-5c4c3C2=O)NC(=O)/C(C)=C\C=C\[C@H](C)[C@H](O)[C@@H](C)[C@@H](O)[C@@H](C)[C@H](OC(C)=O)[C@@H]1C` [Compound 30g, (7S,9E,11S,12R,13S,14R,15R,16R,17S,18S,19E,21Z)-2,15,17-Trihydroxy-11-methoxy-3,7,12,14,16,18,22,30-octamethyl-6,23,37-trioxo-32-{4-[3-(pyridin-2-yl)benzoyl]piperazin-1-yl}-8,27,38-trioxa-24,34-diazahexacyclo[23.11.1.1^4,7.0^5,36.0^26,35.0^28,33]octatriaconta-1(36)2,4,9,19,21,25,28,30,32,34-undecaen-13-yl acetate], the IC50 with VERO cells (ATCC CRL-81) was above 10 µM. For the same compound, in the data set with MTB H37Rv ATCC 27294, the “MIC90 MABA Rel to RMP” value is listed as 0.96 and the MIC90 was 0.026 µM. For the same compound, in the data set on M. tuberculosis H37Rv, the “MBC99 Day 7 (CFU Assay) MBC99 Rel to RMP” value is below 0.08 and the MBC is below 0.02 µM. Moreover, in the data set with DPX2 cells, the “DPX2 Viability @ 6.25 μM” value is 99% and the “DPX2 Viability @ 25 μM” value is reported as 61%.

In the data set on VERO cells (ATCC CRL-81), `CO[C@H]1/C=C/O[C@@]2(C)Oc3c(C)c(O)c4c(=O)c(c5oc6cc(N7CCN(CCCO[C@@H]8COc9nc([N+](=O)[O-])cn9C8)CC7)cc(C)c6nc-5c4c3C2=O)NC(=O)/C(C)=C\C=C\[C@H](C)[C@H](O)[C@@H](C)[C@@H](O)[C@@H](C)[C@H](OC(C)=O)[C@@H]1C` [Compound 29d, (7S,9E,11S,12R,13S,14R,15R,16R,17S,18S,19E,21Z)-2,15,17-Trihydroxy-11-methoxy-3,7,12,14,16,18,22,32-octamethyl-30-[4-(3-{[(6S)-2-nitro-5H,6H,7H-imidazo[2,1-b][1,3]oxazin-6-yl]oxy}propyl)piperazin-1-yl]-6,23,37-trioxo-8,27,38-trioxa-24,34-diazahexacyclo[23.11.1.1^4,7.0^5,36.0^26,35.0^28,33]octatriaconta-1(36)2,4,9,19,21,25,28,30,32,34-undecaen-13-yl acetate] displayed an IC50 above 10 µM. In the data set with MTB H37Rv ATCC 27294, the “MIC90 MABA Rel to RMP” value is recorded as 1.37 and the MIC90 is 0.037 µM. Also, in the data set with M. tuberculosis H37Rv, the “MBC99 Day 7 (CFU Assay) MBC99 Rel to RMP” value turned out to be 0.62 and the MBC came to 0.08 µM. Besides, in the data set on DPX2 cells, the “DPX2 Viability @ 6.25 μM” value stood at 114% and the “DPX2 Viability @ 25 μM” value was 101%.

In the data set with VERO cells (ATCC CRL-81), `CO[C@H]1/C=C/O[C@@]2(C)Oc3c(C)c(O)c4c(=O)c(c5oc6cc(N7CCN(C(=O)C(C)(C)C)CC7)cc(OCc7ccc(CN8CCOCC8)cc7)c6nc-5c4c3C2=O)NC(=O)/C(C)=C\C=C\[C@H](C)[C@H](O)[C@@H](C)[C@@H](O)[C@@H](C)[C@H](OC(C)=O)[C@@H]1C` [Compound 17f, (7S,9E,11S,12R,13S,14R,15R,16R,17S,18S,19E,21Z)-30-[4-(2,2-Dimethylpropanoyl)-piperazin-1-yl]-2,15,17-trihydroxy-11-methoxy-3,7,12,14,16,18,22-heptamethyl-32-({4-[(morpholin-4-yl)methyl]phenyl}methoxy)-6,23,37-trioxo-8,27,38-trioxa-24,34-diazahexacyclo[23.11.1.1^4,7.0^5,36.0^26,35.0^28,33]octatriaconta-1(36)2,4,9,19,21,25,28,30,32,34-undecaen-13-yl acetate] came in with an IC50 above 10 µM. Also, in the data set on MTB H37Rv ATCC 27294, the “MIC90 MABA Rel to RMP” value stood at 1.0 and the MIC amounted to 0.027 µM. Further, in the data set on DPX2 cells, the “DPX2 Viability @ 6.25 μM” value was found to be 85% and the “DPX2 Viability @ 25 μM” value is on record as 71%.
